The target in assay [1] is T1, Epidermal growth factor receptor (Homo sapiens, UniProt P00533). As to the kind of experiment: Inhibition of wild type EGFR by HTRF assay. On the technique in general: TR-FRET usually uses a lanthanide donor and a delayed reading to cut background.
In assay [2] the test system is Lymphokine-activated killer T-cell-originated protein kinase. Kind of assay: Inhibition of PBK1 at 10 uM assessed as residual activity by [33P]ATP radioactive filter binding assay relative to control.
Assay [3] concerns the target Serine/threonine-protein kinase 26 (Homo sapiens) (UniProt Q9P289). Kind of assay: Inhibition of MST4 at 10 uM assessed as residual activity by [33P]ATP radioactive filter binding assay relative to control.
Assay [4] has as its target Mitogen-activated protein kinase 1 (Homo sapiens) (UniProt P28482). Kind of assay: Inhibition of ERK2 at 10 uM assessed as residual activity by [33P]ATP radioactive filter binding assay relative to control.
Assay [5] deals with Epidermal growth factor receptor (Homo sapiens, UniProt P00533, L858R/T790M). As to the kind of experiment: Inhibition of EGFR Leu858Arg and Thr790Met mutant by HTRF assay. It counts as protein assay.
Chain of Epidermal growth factor receptor (Homo sapiens, UniProt P00533, L858R/T790M) (P00533 25-1210 T790M/L858R limits assumed): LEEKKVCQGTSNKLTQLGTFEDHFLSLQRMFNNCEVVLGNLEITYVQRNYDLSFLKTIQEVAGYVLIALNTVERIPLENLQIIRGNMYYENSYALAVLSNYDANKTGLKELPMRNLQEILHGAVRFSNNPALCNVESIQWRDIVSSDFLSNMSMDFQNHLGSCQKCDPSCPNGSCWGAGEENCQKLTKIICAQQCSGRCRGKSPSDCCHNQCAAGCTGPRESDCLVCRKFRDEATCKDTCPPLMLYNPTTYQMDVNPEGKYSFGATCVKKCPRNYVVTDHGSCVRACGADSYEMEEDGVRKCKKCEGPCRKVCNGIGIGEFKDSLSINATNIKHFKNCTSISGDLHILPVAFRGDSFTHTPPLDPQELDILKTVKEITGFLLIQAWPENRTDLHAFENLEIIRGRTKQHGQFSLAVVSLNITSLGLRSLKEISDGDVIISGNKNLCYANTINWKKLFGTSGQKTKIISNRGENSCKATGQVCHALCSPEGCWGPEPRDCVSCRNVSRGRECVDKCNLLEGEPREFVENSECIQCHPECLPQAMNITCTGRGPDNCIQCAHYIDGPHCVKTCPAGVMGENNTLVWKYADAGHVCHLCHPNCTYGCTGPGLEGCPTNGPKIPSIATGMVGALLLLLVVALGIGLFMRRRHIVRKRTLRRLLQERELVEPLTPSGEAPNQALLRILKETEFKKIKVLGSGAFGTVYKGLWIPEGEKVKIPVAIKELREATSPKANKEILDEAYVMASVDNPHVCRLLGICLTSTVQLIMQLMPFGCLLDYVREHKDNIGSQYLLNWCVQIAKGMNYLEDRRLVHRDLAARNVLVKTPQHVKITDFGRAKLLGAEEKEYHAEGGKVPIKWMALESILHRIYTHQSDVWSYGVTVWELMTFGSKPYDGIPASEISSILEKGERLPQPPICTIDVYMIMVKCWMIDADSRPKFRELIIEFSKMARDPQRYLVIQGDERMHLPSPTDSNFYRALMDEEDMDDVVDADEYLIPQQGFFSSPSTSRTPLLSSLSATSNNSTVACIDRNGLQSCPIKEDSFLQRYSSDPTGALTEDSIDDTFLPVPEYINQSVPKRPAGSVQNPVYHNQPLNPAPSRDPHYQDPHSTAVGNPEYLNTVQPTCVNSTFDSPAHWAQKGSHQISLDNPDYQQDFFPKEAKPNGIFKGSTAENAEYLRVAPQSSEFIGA
Assay [6] has as its target T1, Epidermal growth factor receptor. Kind of assay: Inhibition of 746-750 sequence deleted EGFR autophosphorylation in human PC9 cells after 24 hrs by immunoblotting. The note with it: PC-9. The format is cell-based. For orientation: A western blot detects proteins with antibodies after separation by electrophoresis.
The target in assay [7] is Epidermal growth factor receptor (Homo sapiens, UniProt P00533, L858R). Kind of assay: Inhibition of EGFR Leu858Arg mutant by HTRF assay. It counts as protein assay.
Chain of Epidermal growth factor receptor (Homo sapiens, UniProt P00533, L858R) (P00533 25-1210 L858R limits assumed): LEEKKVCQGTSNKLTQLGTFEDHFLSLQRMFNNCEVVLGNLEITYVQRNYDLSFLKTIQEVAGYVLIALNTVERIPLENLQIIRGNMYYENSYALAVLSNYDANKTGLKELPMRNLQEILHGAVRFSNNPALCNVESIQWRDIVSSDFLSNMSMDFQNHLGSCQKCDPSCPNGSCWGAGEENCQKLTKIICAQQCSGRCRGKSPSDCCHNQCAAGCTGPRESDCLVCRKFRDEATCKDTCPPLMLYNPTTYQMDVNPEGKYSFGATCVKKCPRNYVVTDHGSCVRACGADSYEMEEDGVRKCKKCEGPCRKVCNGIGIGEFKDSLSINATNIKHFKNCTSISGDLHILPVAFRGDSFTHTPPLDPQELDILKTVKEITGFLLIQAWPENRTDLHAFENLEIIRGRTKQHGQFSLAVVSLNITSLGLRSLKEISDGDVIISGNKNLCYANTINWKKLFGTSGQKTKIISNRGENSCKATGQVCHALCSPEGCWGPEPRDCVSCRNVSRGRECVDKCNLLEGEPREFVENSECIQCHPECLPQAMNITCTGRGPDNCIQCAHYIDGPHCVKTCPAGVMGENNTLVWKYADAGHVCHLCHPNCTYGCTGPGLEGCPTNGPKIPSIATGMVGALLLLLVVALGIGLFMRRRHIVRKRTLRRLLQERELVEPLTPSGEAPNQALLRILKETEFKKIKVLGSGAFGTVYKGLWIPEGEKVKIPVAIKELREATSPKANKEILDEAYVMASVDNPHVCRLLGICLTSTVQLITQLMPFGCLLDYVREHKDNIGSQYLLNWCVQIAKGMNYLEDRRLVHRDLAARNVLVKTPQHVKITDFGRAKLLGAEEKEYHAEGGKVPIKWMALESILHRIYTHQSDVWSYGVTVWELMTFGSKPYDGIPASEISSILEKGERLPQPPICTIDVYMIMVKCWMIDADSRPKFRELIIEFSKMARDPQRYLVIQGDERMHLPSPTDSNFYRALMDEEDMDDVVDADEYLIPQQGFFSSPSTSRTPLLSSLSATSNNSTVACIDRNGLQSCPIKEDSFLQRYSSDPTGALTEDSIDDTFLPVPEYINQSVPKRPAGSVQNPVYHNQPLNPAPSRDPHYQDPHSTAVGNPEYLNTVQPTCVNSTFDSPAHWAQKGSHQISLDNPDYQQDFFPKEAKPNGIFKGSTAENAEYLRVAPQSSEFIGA
Assay [8] has as its system 3-phosphoinositide-dependent protein kinase 1. As to the kind of experiment: Inhibition of PDK1 at 10 uM assessed as residual activity by [33P]ATP radioactive filter binding assay relative to control.

T1 sequence (P00533 whole entry): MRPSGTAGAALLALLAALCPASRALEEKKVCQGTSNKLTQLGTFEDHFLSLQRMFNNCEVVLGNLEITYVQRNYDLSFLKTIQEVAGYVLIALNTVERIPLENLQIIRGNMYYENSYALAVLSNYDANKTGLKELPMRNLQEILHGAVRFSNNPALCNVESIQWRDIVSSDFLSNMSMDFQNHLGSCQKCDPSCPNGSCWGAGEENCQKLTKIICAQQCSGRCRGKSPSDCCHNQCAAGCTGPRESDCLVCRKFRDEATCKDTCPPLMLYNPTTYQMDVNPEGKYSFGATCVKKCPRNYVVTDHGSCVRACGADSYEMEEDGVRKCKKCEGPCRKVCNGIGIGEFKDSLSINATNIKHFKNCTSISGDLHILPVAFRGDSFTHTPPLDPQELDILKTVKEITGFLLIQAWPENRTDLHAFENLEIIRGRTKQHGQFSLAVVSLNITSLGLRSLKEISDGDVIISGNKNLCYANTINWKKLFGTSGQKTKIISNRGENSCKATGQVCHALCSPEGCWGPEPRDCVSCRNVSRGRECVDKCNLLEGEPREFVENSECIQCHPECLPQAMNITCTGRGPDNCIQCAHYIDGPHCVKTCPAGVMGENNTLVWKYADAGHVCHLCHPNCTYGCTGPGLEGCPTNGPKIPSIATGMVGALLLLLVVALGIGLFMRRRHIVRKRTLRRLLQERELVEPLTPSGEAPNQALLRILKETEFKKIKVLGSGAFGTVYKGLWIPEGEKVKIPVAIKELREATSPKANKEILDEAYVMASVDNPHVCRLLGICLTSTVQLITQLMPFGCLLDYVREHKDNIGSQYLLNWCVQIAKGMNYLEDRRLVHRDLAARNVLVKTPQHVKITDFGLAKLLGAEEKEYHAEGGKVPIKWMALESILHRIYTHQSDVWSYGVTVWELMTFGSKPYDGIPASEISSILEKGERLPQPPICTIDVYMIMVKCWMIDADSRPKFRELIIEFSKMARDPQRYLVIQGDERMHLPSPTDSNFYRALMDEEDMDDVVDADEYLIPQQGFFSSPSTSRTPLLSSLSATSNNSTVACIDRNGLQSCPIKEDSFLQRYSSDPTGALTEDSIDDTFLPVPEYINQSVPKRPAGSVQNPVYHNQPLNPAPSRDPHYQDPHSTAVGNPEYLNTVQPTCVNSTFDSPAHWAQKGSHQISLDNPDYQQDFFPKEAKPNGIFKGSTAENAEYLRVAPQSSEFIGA
Chain of Serine/threonine-protein kinase 26 (Homo sapiens) (Q9P289 2-416 limits assumed): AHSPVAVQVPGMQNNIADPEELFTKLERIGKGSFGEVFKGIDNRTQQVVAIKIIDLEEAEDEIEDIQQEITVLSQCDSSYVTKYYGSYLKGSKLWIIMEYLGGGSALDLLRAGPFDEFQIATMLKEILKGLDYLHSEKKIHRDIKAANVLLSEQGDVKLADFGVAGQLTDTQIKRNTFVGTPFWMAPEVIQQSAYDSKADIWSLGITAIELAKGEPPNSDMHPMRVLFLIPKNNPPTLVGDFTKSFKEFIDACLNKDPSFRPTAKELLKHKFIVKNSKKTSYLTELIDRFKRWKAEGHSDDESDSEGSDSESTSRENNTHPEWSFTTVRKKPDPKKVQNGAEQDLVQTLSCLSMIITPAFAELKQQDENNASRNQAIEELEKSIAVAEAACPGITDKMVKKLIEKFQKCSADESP
Chain of Mitogen-activated protein kinase 1 (Homo sapiens) (P28482 whole entry): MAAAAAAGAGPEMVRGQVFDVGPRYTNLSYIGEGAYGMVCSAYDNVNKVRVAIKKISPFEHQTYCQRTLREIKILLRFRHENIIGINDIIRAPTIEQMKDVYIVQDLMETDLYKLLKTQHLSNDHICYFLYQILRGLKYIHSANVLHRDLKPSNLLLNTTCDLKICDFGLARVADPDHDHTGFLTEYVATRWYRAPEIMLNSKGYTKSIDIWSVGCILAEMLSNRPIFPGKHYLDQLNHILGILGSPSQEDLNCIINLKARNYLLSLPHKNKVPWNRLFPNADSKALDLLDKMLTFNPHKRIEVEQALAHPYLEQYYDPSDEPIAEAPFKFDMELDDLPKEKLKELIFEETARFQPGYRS

A word on the IC50: it is the concentration that gives 50% inhibition. Low values mean inhibition by little substance, high ones a need for much substance. For `CN(C)CCCC(=O)Nc1ccc2nccc(Nc3cccc(Br)c3)c2c1`, the 50% inhibitory concentration (IC50) in assay [1] was 1.7 nM; in assay [5], 130 nM; in assay [7], 0.5 nM. For the same compound, the Activity was 84% in assay [2]; 80% in assay [3]; 88% in assay [4]; “Dose-dependent effect” in assay [6]; 78% in assay [8].
